≈ marks a conversion by molar mass, not a printed value. Where two headings read alike, the source gives them in different places.
Assays:
Thermodynamic solubility = assay type: physicochemical; details: 37 °C, thermodynamic from solid
Excerpt: 4.2. Thermodynamic Solubility
Poor solubility, in particular poor thermodynamic solubility can limit the absorption of compounds from the gastrointestinal tract which in turn may reduce oral bioavailability.
Thermodynamic solubility investigates the solubility of a compound as a saturated solution in equilibrium, by opposition to kinetic solubility, which measures the solubility of a metastable solution where supersaturation may occur and provide over estimation of the actual solubility of the compound. (Klein, 2010)
4.2.2. Thermodynamic Solubility—Protocol 2
In a 8 mL glass vial, 1-2 mg of dry matter of compound were added and stirred with the suitable buffers (Fed State Simulated Intestine Fluid, FeSSIF, or Fasted State Simulated Intestine Fluid, FaSSIF, or Fasted State Simulated Gastric Fluid, FaSSGF, or phosphate buffer pH 7.4) for 24 h at r.t. (for the buffer pH 7.4) or 37° C. (for the GI fluids). The concentration of the mixture was 1 mg/mL.
A volume of 1000 μL were sampled, centrifuged for 10 min at 10 000 rpm and 500 μL of the supernatant were filtered on captiva plate. The samples were diluted in duplicates in DMSO (F100 and F10). Then, a final dilution (F100) in 80/20 H2O/MeCN containing the internal standard (warfarin) was used for LCMS-MS analysis.
A standard curve was made starting from a 40,000 ng/mL stock in DMSO, freshly prepared from dry matter. Then, successive concentrations at 15,000, 11,000, 6,000, 2,500, 1,000, 375, 150 and 75 ng/mL in DMSO were prepared.
Three quality control samples were made: one of 10,000, 1,500 and 200 ng/mL in DMSO, also starting from the DMSO working stock solution at 40,000 ng/mL.
The standard curve and quality controls were diluted a F100 in 80/20 H2O/MeCN (with internal standard) and analyzed on LC/MS-MS (API4000 or API5500).
The samples were analyzed on LC-MS with a flow rate of 0.6 mL/min. The mobile phase A was 0.1% formic acid in water and the mobile phase B was 0.1% formic acid in 90% MeCN and 10% of H2O. The sample was run under positive or negative ion spray on Pursuit C18—5 μm (2.0×20 mm) column, from Agilent.
The ratio analyte/internal standard peaks areas of the standard curve were plotted in a graph and a linear or polynomial of the second order equation was used to calculate the unknown concentrations of the test compound.
Solubility values were reported in μg/mL.

Human Hepatocyte = test: Metabolic stability in hepatocytes (human); assay type: in vitro ADME; details: 1 μM test compound, cryopreserved human hepatocytes
Protocol: 4.6. Metabolic Stability in Hepatocytes
The aim of this assay is to determine the metabolic stability of the compound in hepatocytes (cryopreserved) of different species. Low hepatocyte stability may result in the formation of unwanted metabolites, high clearance, and therefore is not desirable.
The decrease in parent was assessed by measuring the percentage remaining by LC-MS/MS analysis.
A 10 mM stock solution of test compound in DMSO was first diluted in DMSO to 3 mM, and then in modified Krebs-Henseleit buffer (Sigma, K3753) to 5 μM. This compound dilution was added to a suspension of pooled cryopreserved hepatocytes (BioreclamationIVT) at 37° C. under gentle shaking.
Final reaction conditions were: 1 μM of test compound, 0.03% DMSO, 0.5 million viable hepatocytes/mL, and 75 μL incubation volume.
Testosterone (1 μM) and 7-hydroxycoumarin (1 μM) were used, respectively as phase I and phase II metabolic reaction controls.
After 0, 10, 20, 45, 90, 120 and 180 min of incubation, the reaction was terminated with 225 μL of MeCN:MeOH (2:1) containing 100 ng/mL of diclofenac as analytical internal standard. Samples were mixed, centrifuged and the supernatant analyzed by LC-MS/MS.
The instrument responses (ratios of test compound and internal standard peak areas) were referenced to the zero time point samples (considered as 100%) in order to determine the percentage of compound remaining.
Plots of percentage compound remaining were used to determine the intrinsic clearance in the hepatocyte incubations using the following equations:
Scaled Clint [L/h/kg]=Clint[μL/min/10^6 cells]*#(10^6) cells/g liver*60*( 1/10^6) Scaled Clint unbound [L/h/kg]=Clint [L/h/kg]/Fu,inc where: fu,inc equals hepatocyte binding, derived from microsomal binding (fu,mic) by following equation: […]

[1] = Fasted State Simulated Gastric Fluid (FaSSGF), fassgf or other biorelevant, Fasted State Simulated Gastric Fluid, read-out: Tsol FaSSGF
[2] = Fasted State Simulated Intestine Fluid (FaSSIF), fassif, Fasted State Simulated Intestine Fluid, read-out: Tsol FaSSIF
[3] = Fed State Simulated Intestine Fluid (FeSSIF), fessif, Fed State Simulated Intestine Fluid, read-out: Tsol FeSSIF

| Compound | solubility thermodynamic at 24 h (Thermodynamic solubility; [1]) [µg/mL] | solubility thermodynamic at 24 h (Thermodynamic solubility; [2]) [µg/mL] | solubility thermodynamic at 24 h (Thermodynamic solubility; [3]) [µg/mL] | Human Hepatocyte stability (Perc. remaining at 90 min) (Human Hepatocyte) [Perc.] |
| --- | --- | --- | --- | --- |
| CNC(=O)c1cn2nc(CCC(C)(C)O)cc2cc1NC(=O)c1cccc(C(F)(F)F)n1 [Compound 5, 2-(3-hydroxy-3-methylbutyl)-N-methyl-5-[[6-(trifluoromethyl)pyridine-2-carbonyl]amino]pyrazolo[1,5-a]pyridine-6-carboxamide] | 1.96 (≈ 4.36 µM) | 2.26 (≈ 5.03 µM) | 14.2 (≈ 31.6 µM) | 94.5 |
| COc1cn2nc(CC(F)C(C)(C)O)cc2cc1NC(=O)c1cccn(C2CC2)c1=O (stereo not shown) [Compound 22, 1-cyclopropyl-N-[2-(2-fluoro-3-hydroxy-3-methyl-butyl)-6-methoxy-pyrazolo[1,5-a]pyridin-5-yl]-2-oxo-pyridine-3-carboxamide] | 50.6 (≈ 118 µM) | 14 (≈ 32.7 µM) | 75.9 (≈ 177 µM) | 100.05 |
| COc1cn2nc(CCC(C)(C)O)cc2cc1NC(=O)c1cccn(C)c1=O [Compound 2, N-[2-(3-hydroxy-3-methylbutyl)-6-methoxypyrazolo[1,5-a]pyridin-5-yl]-1-methyl-2-oxopyridine-3-carboxamide] |  | 10.2 (≈ 26.5 µM) |  | 100.45 |
| CC(C)(O)CCc1cc2cc(NC(=O)c3cccc(C(F)F)n3)c(C(N)=O)cn2n1 [Compound 20, 5-[[6-(difluoromethyl)pyridine-2-carbonyl]amino]-2-(3-hydroxy-3-methyl-butyl)pyrazolo[1,5-a]pyridine-6-carboxamide] | 1.62 (≈ 3.88 µM) | 3.09 (≈ 7.4 µM) |  | 81.65 |
| [2H]C([2H])([2H])C(O)(CCc1cc2cc(NC(=O)c3cccn(C4CC4)c3=O)c(OC)cn2n1)C([2H])([2H])[2H] [Compound 23, 1-cyclopropyl-N-[6-methoxy-2-[4,4,4-trideuterio-3-hydroxy-3-(trideuteriomethyl)butyl]pyrazolo[1,5-a]pyridin-5-yl]-2-oxo-pyridine-3-carboxamide] | 104 (≈ 250 µM) | 16 (≈ 38.4 µM) | 93 (≈ 223 µM) | 101.45 |
| COc1cn2nc(CCC(C)(C)O)cc2cc1NC(=O)c1cccn(C2CCC2)c1=O [Compound 21, 1-cyclobutyl-N-[2-(3-hydroxy-3-methyl-butyl)-6-methoxy-pyrazolo[1,5-a]pyridin-5-yl]-2-oxo-pyridine-3-carboxamide] |  | 16.4 (≈ 38.6 µM) |  | 92.15 |
